System: not given
Test: not given
Conditions: not given

Row | SMILES | melting point [°C]
1 | Cc1nc2cc(NC(=O)c3cc4cc(F)ccc4n3-c3ccncc3)ccc2n1C [Compound No. 4, N-(1,2-Dimethyl-1H-benzimidazol-5-yl)-5-fluoro-1-(pyridin-4-yl)-1H-indole-2-carboxamide] | 226 to 229
2 | Cc1cc(-n2c(C(=O)Nc3ccc4c(ccn4C)c3)cc3cc(F)ccc32)ccn1 [Compound No. 9, N-(1-Methyl-1H-indol-5-yl)-5-fluoro-1-(2-methylpyridin-4-yl)-1H-indole-2-carboxamide] | 213 to 216
3 | Cc1ccnc(-n2c(C(=O)Nc3ccc4c(c3)nc(C)n4C)cc3cc(F)ccc32)c1 [Compound No. 8, N-(1,2-Dimethyl-1H-benzimidazol-5-yl)-5-fluoro-1-(4-methylpyridin-2-yl)-1H-indole-2-carboxamide] | 270 to 278
4 | Cc1nc2cc(NC(=O)c3cc4cc(F)ccc4n3-c3cccnc3)ccc2n1C [Compound No. 6, N-(1,2-Dimethyl-1H-benzimidazol-5-yl)-5-fluoro-1-(pyridin-3-yl)-1H-indole-2-carboxamide] | 139 to 141
5 | Cc1cc(C)nc(-n2c(C(=O)Nc3ccc4c(ccn4C)c3)cc3cc(F)ccc32)c1 [Compound No. 11, N-(1-Methyl-1H-indol-5-yl)-5-fluoro-1-(4,6-dimethylpyridin-2-yl)-1H-indole-2-carboxamide] | 198 to 199
6 | Cn1ccc2cc(NC(=O)c3cc4cc(F)ccc4n3-c3cccnc3)ccc21 [Compound No. 2, N-(1-methyl-1H-indol-5-yl)-5-fluoro-1-(pyridin-3-yl)-1H-indole-2-carboxamide] | 203 to 205
7 | Cn1ccc2cc(NC(=O)c3cc4cc(F)ccc4n3-c3ccccn3)ccc21 [Compound No. 3, N-(1-Methyl-1H-indol-5-yl)-5-fluoro-1-(pyridin-2-yl)-1H-indole-2-carboxamide] | 210 to 211
8 | Cc1ccnc(-n2c(C(=O)Nc3ccc4c(ccn4C)c3)cc3cc(F)ccc32)c1 [Compound No. 7, N-(1-methyl-1H-indol-5-yl)-5-fluoro-1-(4-methylpyridin-2-yl)-1H-indole-2-carboxamide] | 276 to 279
9 | Cc1nc2cc(NC(=O)c3cc4cc(F)ccc4n3-c3ccccn3)ccc2n1C [Compound No. 5, N-(1,2-Dimethyl-1H-benzimidazol-5-yl)-5-fluoro-1-(pyridin-2-yl)-1H-indole-2-carboxamide] | 260 to 261

Target: T1, TRPV1 receptor (Rattus norvegicus, UniProt O35433)
T1 construct: The neurons of the DRG naturally express the TRPV1 receptor; endogenous in cells; host or cells: primary culture of newborn rat dorsal root ganglion (DRG) neurons
Test: Inhibition of the current induced by capsaicin in rat DRG cells (whole-cell patch clamp)
Type: cell-based
Conditions: DRG neuron; compound at 10 nM; capsaicin (1 μM) response; primary culture of newborn rat DRG neurons; read-out: % Inhibition by the DRG patch technique
Protocol: Test of the Inhibition of the Current Induced by Capsaicin with Regard to Rat DRGs
Primary Culture of Rat Dorsal Root Ganglion (DRG) Cells:
The neurons of the DRG naturally express the TRPV1 receptor.
Primary cultures of DRGs of newborn rats are prepared from 1-day-old rats. Briefly, after dissection, the ganglions are trypsinized and their cells dissociated mechanically by gentle trituration. […]
The measurement chambers (volume 800 μl) comprising the cell preparation are placed on the stage of an inverted microscope (Olympus IMT2) equipped with Hoffman optics (Modulation Contrast, New York) and are observed at a magnification of 400×. […] The overall currents (membrane potential set at −60 mV) are recorded with an Axopatch 1D amplifier (Axon Instruments, Foster City, Calif.) connected to a PC controlled by Pclamp8 software (Axon Instruments). The current plots are recorded on paper and simultaneously recorded digitally (sampling frequency 15 to 25 Hz) and acquired on the hard disk of the PC.
The application of a micromolar capsaicin solution produces an incoming cationic current with regard to the DRG cells (voltage set at −70 mV). […] The results are expressed as % of inhibition of the control capsaicin response.

T1 sequence (O35433 whole entry): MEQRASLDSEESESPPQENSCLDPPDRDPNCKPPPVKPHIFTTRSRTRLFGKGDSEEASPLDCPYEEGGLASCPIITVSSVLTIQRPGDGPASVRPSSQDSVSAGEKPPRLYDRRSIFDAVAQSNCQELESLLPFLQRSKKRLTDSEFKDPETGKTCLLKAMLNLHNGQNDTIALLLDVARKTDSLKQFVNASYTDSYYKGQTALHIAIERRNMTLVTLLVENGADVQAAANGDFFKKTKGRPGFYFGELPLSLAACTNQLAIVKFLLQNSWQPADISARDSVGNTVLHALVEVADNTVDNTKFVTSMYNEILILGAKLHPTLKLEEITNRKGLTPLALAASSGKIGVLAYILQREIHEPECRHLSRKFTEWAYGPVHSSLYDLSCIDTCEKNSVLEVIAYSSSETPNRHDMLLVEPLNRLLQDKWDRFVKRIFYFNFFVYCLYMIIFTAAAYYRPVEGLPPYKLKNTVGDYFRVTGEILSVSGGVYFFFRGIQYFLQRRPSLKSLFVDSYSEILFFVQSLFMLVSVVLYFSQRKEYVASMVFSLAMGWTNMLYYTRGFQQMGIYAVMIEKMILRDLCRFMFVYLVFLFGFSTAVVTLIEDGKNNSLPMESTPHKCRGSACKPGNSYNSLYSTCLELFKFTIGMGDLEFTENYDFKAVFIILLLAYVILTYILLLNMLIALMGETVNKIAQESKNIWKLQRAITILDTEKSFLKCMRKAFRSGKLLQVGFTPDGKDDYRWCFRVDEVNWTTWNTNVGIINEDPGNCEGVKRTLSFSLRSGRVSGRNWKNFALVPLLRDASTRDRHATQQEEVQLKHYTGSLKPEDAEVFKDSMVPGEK

Row | SMILES | inhibition at 0.01 µM [%]
10 | Cc1cc(C)nc(-n2c(C(=O)Nc3ccc4c(c3)nc(C)n4C)cc3cc(F)ccc32)c1 [Compound No. 10, N-(1,2-Dimethyl-1H-benzimidazol-5-yl)-5-fluoro-1-(4,6-dimethylpyridin-2-yl)-1H-indole-2-carboxamide] | 70
